Entries after “also recorded” stand apart in the source; their conditions may differ.
Tests used:
Assay type in all cases: in vivo, rat
[1] = tested on: Marchigian Sardinian alcohol-preferring (msP) rats; assay: Acute voluntary ethanol intake, alcohol access restricted to 2 hours/day
Procedure: (§1) At the beginning of the experiments, msP rats were allowed free choice between water and 10% (v/v) alcohol 24 h/day for at least 15 days. The fluids were offered in graduated drinking tubes equipped with metallic drinking spouts. The position (to the right or left) of alcohol and water drinking tubes was changed daily to avoid the development of side preference. Water and food were available ad libitum, while alcohol access was either restricted to 2 hours/day (Examples 1 and 2) or was available 24 hours/day (Examples 3 and 4). Alcohol, water and food intakes were measured.
. After acquisition of a stable baseline of ethanol intake (6-8 g/kg bw; daily), alcohol access was restricted to 2 hours a day at the beginning of the dark phase. Water and food were freely available.
(§2) […]. Before starting the treatment, rats were trained to gavage administration procedures for three days, during which they received vehicle (distilled water).
Treatments were carried out at intervals of at least three days. […] Drinking experiments were conducted right at the beginning of the dark cycle. Alcohol, water and food intakes were monitored at 30, 60, 90 and 120 minutes after ethanol was made available.
The msP rats (n=8) were prepared for the study as described in Example 1. After acquisition of a stable baseline of ethanol intake, alcohol access was restricted to 2 hours a day at the beginning of the dark phase. Water and food were freely available. […]. The experiment was conducted using a within subject counterbalanced Latine square design where each animal received all drug doses.
These experiments were conducted at the beginning of the dark cycle and alcohol, and water and food intakes were monitored at 30, 60, 90 and 120 minutes after ethanol was made available.

[2] = tested on: Marchigian Sardinian alcohol-preferring (msP) rats; assay: Subchronic (7 days) voluntary ethanol intake, 10% alcohol available 24 hours/day
Procedure: as §1, §2
Alcohol, water and food intakes were monitored at 2, 8 and 24 hours. Fluids and food intakes were monitored for three additional days after the end of the drug treatment period.
[…]. According to a between-subject design, four groups of msP rats (N=9/group) were prepared as described in Example 3. […] […]. Alcohol, water and food intakes were monitored at 2, 8 and 24 hours. Fluids and food intakes were monitored for three additional days after the end of the drug treatment period.

Wistar rats [3] = assay: Alcohol withdrawal score after six days of intermittent alcohol intoxication
Procedure: Male Wistar rats were subjected to a six days of intermittent alcohol intoxication. […] The first ethanol dose was given at the beginning of the dark phase. The other 3 daily doses were administered at intervals of 3 hours. Rats were not injected during the light phase of the light/dark cycle. […] Behavioural signs of withdrawal included: (1) presence of the ventromedial distal flexion response; (2) tail stiffness/rigidity; and (3) tremors (Schulteis et al. 1995). […] Schulteis, et al., 1995). All signs were cumulated to yield an overall withdrawal severity score.

Wistar rats [4] = assay: FR5 cocaine self-administration; conditions: pioglitazone both 10.0 and 30.0 mg/kg OS 12 hours and 1 hour before session
Procedure: […]. Drug or vehicle solution was infused at a volume of 0.1 ml over 4 s.
(§3) Male Wistar rats weighing between 180 and 200 g at the time of arrival in the lab were used. The rats were housed in groups of three in a humidity- and temperature-controlled (22° C.) vivarium on a 12 h: 12 h reverse light/dark cycle (on, 17:00; off, 05:00) with ad libitum access to food and water. One week after arrival, rats were subjected to surgery, and a silastic catheter was implanted into the right jugular vein.
Cocaine self-administration training continued until a stable baseline of responding was reached (less than 10% variation for 3 consecutive days calculated for each single rat). At this point, drug testing begun.
. […] A 3-day interval was allowed between drug testing. During these intervals, cocaine self-administration was continued to re-establish baseline lever responses.

Long Evans rats [5] = assay: FR5 nicotine self-administration; conditions: pioglitazone 30 mg/kg OS 12 hours and 1 hour before session; p<0.05
Procedure: Bupropion hydrochloride (Sigma, Milan, Italy) was dissolved in saline. Nicotine tartrate (Sigma, Milan, Italy) was dissolved in isotonic saline at a concentration of 0.03 mg/0.1 ml free base. The pH of the nicotine solution was adjusted to 7 with dilute NaOH. Drug or vehicle solution was infused at a volume of 0.1 ml over 4 s.
as §3, with “Long Evans” for “Wistar”, “h:12” for “h: 12”, “arrival, the” for “arrival,”
After the successful completion of cocaine training, rats were allowed to self-administer nicotine at the 0.03 mg/kg/infusion dose by switching the delivery of cocaine for the delivery of a nicotine infusion. Nicotine self-administration training continued until stable baseline of responding was established (less than 20% variation for 3 consecutive days calculated for each single rat). At this point, drug testing began.
. […] A 3-day interval was allowed between drug testing. During these intervals, nicotine self-administration was continued to re-establish lever responses baseline.
Statistical significance was set at P<0.05

Long Evans rats [6] = assay: Yohimbine-induced reinstatement of nicotine seeking; conditions: pioglitazone all doses tested (5.0, 10.0 and 30.0 mg/kg), 12 and 1 hour before test
Procedure: Stress and anxiety are major factors in resuming nicotine use in former abstinent users. […] Reinstatement experiments and relative drug treatments were performed every third day. Between reinstatements, extinction baseline was re-established.

[7] = pioglitazone 30 mg/kg OS at 12 hours and 1 hour before access to ethanol
[8] = pioglitazone 10 and 30 mg/kg, p<0.01

CCc1ccc(CCOc2ccc(CC3SC(=O)NC3=O)cc2)nc1.Cl (centres unmarked) [pioglitazone]
ethanol consumption at 30, 60, or 90 minutes [1, 7]: not at 30, 60, or 90 minutes
ethanol consumption at 2 hours [1, 7]: significantly reduced
ethanol intake, overall treatment effect (ANOVA) ([1]; pioglitazone 10.0, 30.0 mg/kg OS): absence of a significant treatment effect
voluntary ethanol intake, overall ([2]; pioglitazone 10.0 or 30.0 mg/kg OS twice a day for 7 days): significantly reduced
ethanol intake starting from the 4th day of treatment ([2]; pioglitazone both doses (10 and 30 mg/kg)): significantly reduced
ethanol intake, onset of effect ([2]; pioglitazone highest dose (30 mg/kg), 7 days): appeared from the first day of treatment
alcohol withdrawal signs (Wistar rats [3]; pioglitazone 10 mg/kg and 30 mg/kg, 12 hours and 1 hour before rating): significantly reduced
tail rigidity (Wistar rats [3]; [8]): highly significant effect
tremors (Wistar rats [3]; [8]): highly significant effect
ventromedial limb retraction (Wistar rats [3]; [8]): highly significant effect
rats showing seizures during withdrawal (Wistar rats [3]; pioglitazone treated rats (two out of 7 vehicle animals showed convulsion)): none of the 12 rats
cocaine self-administration (Wistar rats [4]): significant (p<0.01) reduction
nicotine self-administration (Long Evans rats [5]): significantly reduced
yohimbine-induced reinstatement of nicotine seeking (Long Evans rats [6]): prevented; also recorded: significantly (p<0.001) decreased

Source: patent publication US20130296347A1, “Compositions and Methods for Prophylaxis and Treatment of Addictions” (Omeros Corporation, priority 2007, published 2013)
